Measured values as given in patent US20250109388A1, “METHOD FOR ISOLATING AND CONCENTRATING EXTRACELLULAR VESICLE GROUP DERIVED FROM CANCER CELL, ANALYSIS METHOD, DRUG SELECTION METHOD, KIT, AND ANTI-CANCER AGENT” (THE UNIVERSITY OF TOKYO, priority 2022, published 2025).

Key:
[1] = system: human adipocytes; experiment: EV internalization into human adipocytes by β-actin-HiBiT luciferase activity; assay type: cell-based; settings: Panc-1 EVs, 1 hour; 20 IM CPZ, 10 μM nocodazole, 20 μM CytD, 2.5 μg/mL nystatin
Experimental: The luciferase level is a luciferase level 5 of adipocytes treated for 1 hour with EV ([…]) in the presence or absence of a treatment with an endocytosis inhibitor (20 IM chlorpromazine (CPZ), 10 μM nocodazole, 20 μM cytochalasin D (CytD), or 2.5 μg/mL nystatin, or incubation at 4° C.), which is a value indicated in terms of comparison with a negative control (PBS). Data are in terms of mean±SD (n=3). P=0.74 (CPZ), *P=0.029 (nocodazole), *P=0.032 (CytD), **P=0.0078 (nystatin), and **P=0.0074 (4° C.); comparison with cells treated with EV alone (control).
Wild type: EVs derived from Panc-1 cells (not expressing HiBiT) as a negative control, EV-H and EV-L: EVs derived from Panc-1-ACTB-HiBiT cells cultured with high glucose and low glucose, respectively. […] P=0.61 (EV-H versus EV-L). […] P=0.72. […] The relative luciferase level of adipocytes treated for 1 hour with 10^9 particles of EVs (EV-H and EV-L) derived from Panc-1-ACTB-HiBiT cells was compared with the negative control (PBS). Data are in terms of mean±SD (n=3). **P=0.0011.
Wild type; Panc-1 cells (not expressing HiBiT) as a negative control, EV and EV-NP40; EVs derived from Panc-1-ACTB-HiBiT cells. 10^9 particles per sample were used. Data are in terms of mean±SD (n=3). **P=0.0017 (EV), **P<[…] (EV-NP40), and **P=0.0026 (EV versus EV-NP40). […] The luciferase level of the lysate of adipocytes treated for 1 hour with EVs (10^9 particles) derived from Panc-1-ACTB-HiBiT cells or EV-NP40 was compared with the negative control (PBS), and the results are shown. Data are in terms of mean±SD (n=3). *P=0.045. Statistical analyses were carried out using Welch's t-test.
β-actin is contained as a pan-EV marker in most EVs derived from human serum and human cell lines. To monitor the EV endocytosis level, a reporter cell (Panc-1-ACTB-HiBiT cell) was established by knocking in the HiBiT peptide sequence at the 3′ terminal of the ACTB locus of Panc-1 cell (see FIGS. 11 and 12). A high luciferase activity was detected in a lysate of cells and in EVs derived from these cells, and thus it was confirmed that the β-actin-HiBiT protein is present in the EVs (see FIGS. 13(A) and 13(B).
The luciferase level of the adipocyte lysate was upregualted 1 hour after the addition of EV and was similar to a level in a case where chlorpromazine, a clathrin-mediated endocytosis inhibitor, was used. […] (see FIG. 14).

[2] = system: human adipocytes; experiment: Glycerin release (lipolysis) from human adipocytes treated with EVs; assay type: cell-based; settings: for Released glycerin level from adipocytes treated with Panc-1 EVs in presence of inhibitor: 10 μM H89, 0.5 μM orlistat, Cay10499
Experimental: (§1) Data are in terms of mean±SD (n=3). **P=0.0025. […] Data are in terms of mean±SD (n=3). […] P=0.65.
FIG. 15 This figure is a graph of glycerin release from adipocytes treated for 24 hours with EVs (1.5 μg) derived from Panc-1 cells, in the presence or absence of an inhibitor of endocytosis. The dosage of the inhibitor is as described in FIG. 14. Data are in terms of mean±SD (n=3). P=0.40 (CPZ), *P=0.027 (Nocodazole), *P=0.012 (CytD). **P=0.0065 (Nystatin), and **P=0.0074 (4° C.); comparison with cells treated with EV alone (control). Statistical analyses were carried out using Welch's t-test. […]
EVs having a mode diameter of 100 to 150 nm were isolated from various sources, except for EVs of about 240 nm derived from Capan-2 cells. […] The expression of exosome markers such as TSG101 and CD63 in EVs was confirmed, whereby it was confirmed that EV isolation was appropriate (see FIG. 1). To investigate the effect of EV, mature human adipocytes were induced from human adipose-derived mesenchymal stem cells (hAD-MSCs) and subjected to an EV treatment (see FIGS. 2 to 4). […] Miapapaca-2 cells, and BxPC-3 cells, but it was not observed in adipocytes treated with EVs derived from Capan-2 cells (see FIG. 5).

[3] = system: adipocytes; experiment: Isoproterenol-induced glycerin release from adipocytes; assay type: cell-based, human
Description: as §1
Further, the dependence of the lipolysis induced by EV, under newly synthesized cAMP, was investigated. In general, a β-stimulant such as isoproterenol activates G proteins, and it subsequently activates adenylyl cyclase, which leads to the synthesis of cAMP.

[4] = 30 μM SQ22536, 24-hour treatment

SMILES | Luciferase level of adipocyte lysate (EV internalization) with endocytosis inhibitor, vs EV alone [1] | Released glycerin level from adipocytes treated with Panc-1 EVs in presence of inhibitor [2] | also measured
C[C@@H]1[C@H](O)[C@@H](C)/C=C/C=C/CC/C=C/C=C/C=C/C=C/C(O[C@H]2O[C@H](C)[C@@H](O)[C@H](N)[C@@H]2O)CC2O[C@](O)(CC(O)C(O)CCC(O)CC(O)CC(O)CC(=O)O[C@H]1C)CC(O)C2C(=O)O (stereo partly shown) [nystatin] | significantly lower |  | 
CCCCCCCCCCC[C@@H](C[C@@H]1OC(=O)[C@H]1CCCCCC)OC(=O)[C@H](CC(C)C)NC=O [Orlistat] |  | significantly reduced | 
C=C1[C@@H](C)[C@H]2[C@H](Cc3ccccc3)NC(=O)[C@]23[C@H](OC(C)=O)/C=C/[C@@](C)(O)C(=O)[C@@H](C)C/C=C/[C@H]3[C@@H]1O [cytochalasin D] | significantly lower |  | 
CC(C)NCC(O)c1ccc(O)c(O)c1 (stereo not shown) [isoproterenol] |  |  | Lipolysis in adipocytes (glycerin release) ([3]; 10 μM isoproterenol): induces lipolysis
CN(C)CCCN1c2ccccc2Sc2ccc(Cl)cc21 [chlorpromazine] | similar |  | 
O=S(=O)(NCCNC/C=C/c1ccc(Br)cc1)c1cccc2cnccc12 [H89] |  | significantly reduced | 
Nc1ncnc2c1ncn2C1CCCO1 (stereo not shown) [SQ22536] |  |  | Inhibition of isoproterenol-induced lipolysis [3, 4]: significantly inhibited; Inhibition of lipolysis induced by EVs derived from Panc-1 [2, 4]: did not inhibit
COc1nn(-c2ccc(NC(=O)OCc3ccccc3)c(C)c2)c(=O)o1 [Cay10499] |  | significantly reduced | 
COC(=O)Nc1nc2ccc(C(=O)c3cccs3)cc2[nH]1 [nocodazole] | significantly lower |  | 
